Assay results reported in publication PMC3591338, “Kinetics of Isomerization and Inversion of Aspartate 58 of αA-Crystallin Peptide Mimics under Physiological Conditions” (PLoS ONE, 2013).
Where a SMILES comes first, the peptide text is derived from it.

experiment: Heating experiments: succinimide formation (dehydration) from Asp isomer peptides; type: physicochemical; conditions: chemical stability, PBS pH 7.4, 70°C, RP-HPLC peak areas, 215 nm
Protocol: To determine the rate constant for the conversion the Asp isomers to succinimides in the T6 peptide, the T6-Lα, T6-Lβ, T6-Dα and T6-Dβ peptides were dissolved in PBS (pH7.4) and were incubated at 50, 60, 70, 80, and 90°C for 0.4–31 days.
After the incubation of the 4 isomeric peptides, these peptides were subjected to HPLC. Since the four isomeric T6 peptides are clearly separated by RP-HPLC chromatography, we can measure the relative amounts of the peptides produced by the incubation from the peak areas of the 4 isomeric peptides in the chromatogram. The results are as follows: [drawing 11] (4 - 1) [drawing 12] (4 - 2) [drawing 13] (4 - 3) [drawing 14] (4 - 4) where [L-α-Asp]%, [L-β-Asp]%, [D-α-Asp]%, and [D-β-Asp]% are relative amounts (%) of L-α-Asp, L-β-Asp, D-α-Asp and D-β-Asp, and [L-α-Asp], [L-β-Asp], [D-α-Asp] and [D-β-Asp] represent the concentration of L-α-Asp, L-β-Asp, D-α-Asp and D-β-Asp respectively, which are calculated from the peak area in the RP-HPLC chromatogram. We plotted the relative amounts against incubation time. Subsequently, we drew fitted curves for this plot as follows:f1(t) for L-α-Asp, f2(t) for L-β-Asp, f3(t) for D-α-Asp, f4(t) for D-β-Asp.
The rate constants of the conversion of the peptide isomers can be expressed as follows: [drawing 15] (5 - 1) [drawing 16] (5 - 2) [drawing 17] (5 - 3) [drawing 18] (5 - 4) where [L-succinimide]% and [D-succinimide]% represent the relative amounts of L-succinimide and D-succinimide as a percentage, t is time (day), k1 is the rate constant for the conversion of L-α-Asp to L-succinimide (day^−1), k2 is the rate constant for the conversionof L-succinimide to L-α-Asp (day^−1), k3 is the rate constant for the conversion of L-β-Asp to L-succinimide (day^−1), k4 is the rate constant for the conversion of L-succinimide to L-β-Asp (day^−1), k5 is the rate constant for the conversion of D-α-Asp to D-succinimide (day^−1), k6 is the rate constant for the conversion of D-succinimide to D-α-Asp (day^−1), k7 is the rate constant for the conversion of D-β-Asp to D-succinimide (day^−1), k8 is the rate constant for the conversion of D-succinimide to D-β-Asp (day^−1), and f1’(t), f2’(t), f3’(t) and f4’(t) are derivatives of f1(t), f2(t), f3(t) and f4(t). At t = 0 day, [L-α-Asp]% and [L-succinimide]% are 100% and 0% respectively, therefore, Eq. (5-1) can be expressed as: […]
We determined k1, k3, k5 and k7 at five temperatures (50, 60, 70, 80 and 90°C) by using Eq. (6-1), (6-2), (6-3), (6-4). The Arrhenius equation shown below gives the activation energy of the degradation reaction. [drawing 23] […] From Eq. (7), we calculated k1, k3, k5 and k7 at 37°C using k1, k3, k5 and k7 from five temperatures (50, 60, 70, 80 and 90°C).

SMILES | amount of peptide remaining after 10 days of incubation at 70°C
CC[C@H](C)[C@H](NC(=O)CNC(=O)[C@H](CO)NC(=O)C[C@H](NC(=O)[C@H](CC(C)C)NC(=O)[C@@H](NC(=O)[C@@H](N)[C@@H](C)O)C(C)C)C(=O)O)C(=O)N[C@@H](CO)C(=O)N[C@@H](CCC(=O)O)C(=O)N[C@H](C(=O)N[C@@H](CCCNC(=N)N)C(=O)O)C(C)C [T6-Lβ] (HELM PEPTIDE1{T.V.L.[O=C(O)[C@H](CC(=O)[*:2])N[*:1]].S.G.I.S.E.V.R}$$$$V2.0) | more than 80%
CC[C@H](C)[C@H](NC(=O)CNC(=O)[C@H](CO)NC(=O)C[C@@H](NC(=O)[C@H](CC(C)C)NC(=O)[C@@H](NC(=O)[C@@H](N)[C@@H](C)O)C(C)C)C(=O)O)C(=O)N[C@@H](CO)C(=O)N[C@@H](CCC(=O)O)C(=O)N[C@H](C(=O)N[C@@H](CCCNC(=N)N)C(=O)O)C(C)C [T6-Dβ] (HELM PEPTIDE1{T.V.L.[O=C(O)[C@@H](CC(=O)[*:2])N[*:1]].S.G.I.S.E.V.R}$$$$V2.0) | more than 80%
CC[C@H](C)[C@H](NC(=O)CNC(=O)[C@H](CO)NC(=O)[C@H](CC(=O)O)NC(=O)[C@H](CC(C)C)NC(=O)[C@@H](NC(=O)[C@@H](N)[C@@H](C)O)C(C)C)C(=O)N[C@@H](CO)C(=O)N[C@@H](CCC(=O)O)C(=O)N[C@H](C(=O)N[C@@H](CCCNC(=N)N)C(=O)O)C(C)C [T6-Lα] (H-TVLDSGISEVR-OH) | 30%
CC[C@H](C)[C@H](NC(=O)CNC(=O)[C@H](CO)NC(=O)[C@@H](CC(=O)O)NC(=O)[C@H](CC(C)C)NC(=O)[C@@H](NC(=O)[C@@H](N)[C@@H](C)O)C(C)C)C(=O)N[C@@H](CO)C(=O)N[C@@H](CCC(=O)O)C(=O)N[C@H](C(=O)N[C@@H](CCCNC(=N)N)C(=O)O)C(C)C [T6-Dα] (HELM PEPTIDE1{T.V.L.[dD].S.G.I.S.E.V.R}$$$$V2.0) | 40%
